Laboratory results taken from BigSolDB 2.1.

OCC1(O)OC[C@@H](O)[C@H](O)[C@@H]1O (stereo not given in full)
solubility (mole fraction)
Conditions | 283.15 K | 288.15 K | 293.15 K | 298.15 K | 303.15 K | 308.15 K | 313.15 K | 318.15 K | 323.15 K
in ethanol | 0.00138 | 0.00168 | 0.00193 | 0.00219 | 0.00245 | 0.00288 | 0.00328 | 0.00395 | 0.00468
in isopropanol | 0.00038 | 0.00041 | 0.0006 | 0.00088 | 0.00121 | 0.0015 | 0.00171 | 0.00211 | 0.00261
in methanol | 0.00414 | 0.00553 | 0.00609 | 0.00758 | 0.00892 | 0.0101 | 0.0121 | 0.0155 | 0.0166
in n-propanol | 0.00038 | 0.00043 | 0.00062 | 0.00088 | 0.00127 | 0.00164 | 0.002 | 0.00238 | 0.00272
in water | 0.0976 | 0.106 | 0.116 | 0.124 | 0.135 | 0.146 | 0.155 | 0.166 | 0.175
